Results published in patent US9249129B2, “Morpholino substituted urea derivatives as mTOR inhibitors” (CELLZOME LIMITED, priority 2010, dated 2016).

How the values were obtained:
Assay in all cases: kinobeads assay with mass spectrometry detection of kinases (kinase selectivity profile)
Format in all cases: binding
kinases (kinome) [1] = target: T1, kinases (kinome) (Homo sapiens, UniProt Q9NYL2); settings: ZAK (TKL), IPI00329638
T1 construct: determined in kinobeads assays with mass spectrometry detection of kinases as described previously; endogenous in cells; host or cells: cell lysate
Text: (§1) The protein kinase complement of the human genome (the kinome) was described previously (Manning et al., 2002. Science 298(5600):1912-1934). Sequence accession numbers are defined by the International Protein Index (IPI) (Kersey et al., 2004. Proteomics 4(7):1985-1988).

kinases (kinome) [2] = target: T2, kinases (kinome) (Homo sapiens, UniProt Q6PHR2); settings: ULK3 (Other), IPI00910978
T2 construct: determined in kinobeads assays with mass spectrometry detection of kinases as described previously; endogenous in cells; host or cells: cell lysate
T2 sequence (Q6PHR2 1-472): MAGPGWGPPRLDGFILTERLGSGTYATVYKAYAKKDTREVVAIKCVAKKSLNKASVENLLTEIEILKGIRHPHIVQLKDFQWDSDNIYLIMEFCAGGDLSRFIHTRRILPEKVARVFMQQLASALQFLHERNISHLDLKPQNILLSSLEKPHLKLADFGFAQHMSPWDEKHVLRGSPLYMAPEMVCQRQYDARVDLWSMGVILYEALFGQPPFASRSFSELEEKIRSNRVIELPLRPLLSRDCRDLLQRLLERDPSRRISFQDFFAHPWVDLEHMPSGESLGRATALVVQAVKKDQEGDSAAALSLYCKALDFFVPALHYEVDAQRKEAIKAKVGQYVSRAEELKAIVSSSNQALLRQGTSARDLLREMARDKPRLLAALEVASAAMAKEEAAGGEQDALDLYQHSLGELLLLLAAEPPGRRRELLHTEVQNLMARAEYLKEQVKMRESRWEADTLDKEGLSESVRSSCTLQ
Text: as §1

kinases (kinome) [3] = target: T3, kinases (kinome) (Homo sapiens, UniProt Q9Y2K2); settings: QSK (CAMK), IPI00657720
T3 construct: determined in kinobeads assays with mass spectrometry detection of kinases as described previously; endogenous in cells; host or cells: cell lysate
Text: as §1

kinases (kinome) [4] = target: T4, kinases (kinome) (Homo sapiens, UniProt P78527); settings: DNAPK (Atypical), IPI00296337
T4 construct: determined in kinobeads assays with mass spectrometry detection of kinases as described previously; endogenous in cells; host or cells: cell lysate
Text: as §1

kinases (kinome) [5] = target: T5, kinases (kinome) (Homo sapiens, UniProt Q9NSY1); settings: BIKE (Other), IPI00337426
T5 construct: determined in kinobeads assays with mass spectrometry detection of kinases as described previously; endogenous in cells; host or cells: cell lysate
Text: as §1

kinases (kinome) [6] = target: kinases (kinome) (Homo sapiens, UniProt Q15418); settings: RSK3 (AGC), IPI00477982
Text: as §1

kinases (kinome) [7] = target: T6, kinases (kinome) (Homo sapiens, UniProt Q04759); settings: PKCt (AGC), IPI00029196
T6 construct: determined in kinobeads assays with mass spectrometry detection of kinases as described previously; endogenous in cells; host or cells: cell lysate
Text: as §1

kinases (kinome) [8] = target: T7, kinases (kinome) (Homo sapiens, UniProt P09769); settings: FGR (TK), IPI00016871
T7 construct: determined in kinobeads assays with mass spectrometry detection of kinases as described previously; endogenous in cells; host or cells: cell lysate
Text: as §1

kinases (kinome) [9] = target: T8, kinases (kinome) (Homo sapiens, UniProt Q9Y2U5); settings: MAP3K2 (STE), IPI00513803
T8 construct: determined in kinobeads assays with mass spectrometry detection of kinases as described previously; endogenous in cells; host or cells: cell lysate
T8 sequence (Q9Y2U5 1-619): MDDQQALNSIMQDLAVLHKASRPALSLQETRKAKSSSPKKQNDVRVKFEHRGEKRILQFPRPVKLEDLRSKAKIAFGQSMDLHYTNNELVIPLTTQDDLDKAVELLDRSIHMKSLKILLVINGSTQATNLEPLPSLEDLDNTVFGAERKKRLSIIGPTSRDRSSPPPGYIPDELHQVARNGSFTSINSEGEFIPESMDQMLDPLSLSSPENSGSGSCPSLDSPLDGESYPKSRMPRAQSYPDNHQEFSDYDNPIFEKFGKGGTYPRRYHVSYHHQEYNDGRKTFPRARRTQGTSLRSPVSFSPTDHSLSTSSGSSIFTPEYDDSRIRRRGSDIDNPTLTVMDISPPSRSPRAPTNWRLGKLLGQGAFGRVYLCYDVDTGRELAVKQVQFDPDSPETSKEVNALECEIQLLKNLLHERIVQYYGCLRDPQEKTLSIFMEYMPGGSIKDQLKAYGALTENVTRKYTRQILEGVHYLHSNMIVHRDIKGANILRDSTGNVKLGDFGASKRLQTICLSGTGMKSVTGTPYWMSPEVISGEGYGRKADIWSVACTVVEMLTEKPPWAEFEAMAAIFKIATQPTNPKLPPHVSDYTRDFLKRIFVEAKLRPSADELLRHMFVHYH
Text: as §1

kinases (kinome) [10] = target: T9, kinases (kinome) (Homo sapiens, UniProt Q05397); settings: FAK (TK), IPI00413961
T9 construct: determined in kinobeads assays with mass spectrometry detection of kinases as described previously; endogenous in cells; host or cells: cell lysate
Text: as §1

kinases (kinome) [11] = target: T10, kinases (kinome) (Homo sapiens, UniProt Q08345); settings: DDR1 (TK), IPI00657861
T10 construct: determined in kinobeads assays with mass spectrometry detection of kinases as described previously; endogenous in cells; host or cells: cell lysate
Text: as §1

kinases (kinome) [12] = target: T11, kinases (kinome) (Homo sapiens, UniProt P27448); settings: MARK3 (CAMK), IPI00183118
T11 construct: determined in kinobeads assays with mass spectrometry detection of kinases as described previously; endogenous in cells; host or cells: cell lysate
Text: as §1

kinases (kinome) [13] = target: T12, kinases (kinome) (Homo sapiens, UniProt P45983); settings: JNK1 (CMGC), IPI00220306
T12 construct: determined in kinobeads assays with mass spectrometry detection of kinases as described previously; endogenous in cells; host or cells: cell lysate
Text: as §1

kinases (kinome) [14] = target: T13, kinases (kinome) (Homo sapiens, UniProt P23458); settings: JAK1 (TK), IPI00784013
T13 construct: determined in kinobeads assays with mass spectrometry detection of kinases as described previously; endogenous in cells; host or cells: cell lysate
Text: as §1

kinases (kinome) [15] = target: T14, kinases (kinome) (Homo sapiens, UniProt P50750); settings: CDK9 (CMGC), IPI00552413
T14 construct: determined in kinobeads assays with mass spectrometry detection of kinases as described previously; endogenous in cells; host or cells: cell lysate
Text: as §1

kinases (kinome) [16] = target: T15, kinases (kinome) (Homo sapiens, UniProt P28482); settings: Erk2 (CMGC), IPI00003479
T15 construct: determined in kinobeads assays with mass spectrometry detection of kinases as described previously; endogenous in cells; host or cells: cell lysate
Text: as §1

kinases (kinome) [17] = target: T16, kinases (kinome) (Homo sapiens, UniProt Q9BQI3); settings: HRI (Other), IPI00328149
T16 construct: determined in kinobeads assays with mass spectrometry detection of kinases as described previously; endogenous in cells; host or cells: cell lysate
Text: as §1

kinases (kinome) [18] = target: T17, kinases (kinome) (Homo sapiens, UniProt Q9Y6R4); settings: MAP3K4 (STE), IPI00386260
T17 construct: determined in kinobeads assays with mass spectrometry detection of kinases as described previously; endogenous in cells; host or cells: cell lysate
Text: as §1

kinases (kinome) [19] = target: T18, kinases (kinome) (Homo sapiens, UniProt Q15059); settings: BRD3 (Atypical), IPI00014266
T18 construct: determined in kinobeads assays with mass spectrometry detection of kinases as described previously; endogenous in cells; host or cells: cell lysate
Text: as §1

kinases (kinome) [20] = target: T19, kinases (kinome) (Homo sapiens, UniProt P42336); settings: PIK3Ca (Lipid Kinase), IPI00031386
T19 construct: determined in kinobeads assays with mass spectrometry detection of kinases as described previously; endogenous in cells; host or cells: cell lysate
Text: as §1

kinases (kinome) [21] = target: T20, kinases (kinome) (Homo sapiens, UniProt P42684); settings: ARG (TK), IPI00329488
T20 construct: determined in kinobeads assays with mass spectrometry detection of kinases as described previously; endogenous in cells; host or cells: cell lysate
Text: as §1

Measured: IC50

T14 sequence (P50750 whole entry): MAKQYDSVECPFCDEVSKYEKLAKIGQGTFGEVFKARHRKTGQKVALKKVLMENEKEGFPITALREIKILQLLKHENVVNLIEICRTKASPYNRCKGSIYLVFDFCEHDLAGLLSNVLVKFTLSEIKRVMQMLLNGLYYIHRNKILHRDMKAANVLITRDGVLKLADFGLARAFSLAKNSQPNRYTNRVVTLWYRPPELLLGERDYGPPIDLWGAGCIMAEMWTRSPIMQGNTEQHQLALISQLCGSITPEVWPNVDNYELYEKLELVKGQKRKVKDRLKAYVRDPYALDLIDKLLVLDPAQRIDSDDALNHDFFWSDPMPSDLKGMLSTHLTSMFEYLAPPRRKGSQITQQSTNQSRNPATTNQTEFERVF
T16 sequence (Q9BQI3 whole entry): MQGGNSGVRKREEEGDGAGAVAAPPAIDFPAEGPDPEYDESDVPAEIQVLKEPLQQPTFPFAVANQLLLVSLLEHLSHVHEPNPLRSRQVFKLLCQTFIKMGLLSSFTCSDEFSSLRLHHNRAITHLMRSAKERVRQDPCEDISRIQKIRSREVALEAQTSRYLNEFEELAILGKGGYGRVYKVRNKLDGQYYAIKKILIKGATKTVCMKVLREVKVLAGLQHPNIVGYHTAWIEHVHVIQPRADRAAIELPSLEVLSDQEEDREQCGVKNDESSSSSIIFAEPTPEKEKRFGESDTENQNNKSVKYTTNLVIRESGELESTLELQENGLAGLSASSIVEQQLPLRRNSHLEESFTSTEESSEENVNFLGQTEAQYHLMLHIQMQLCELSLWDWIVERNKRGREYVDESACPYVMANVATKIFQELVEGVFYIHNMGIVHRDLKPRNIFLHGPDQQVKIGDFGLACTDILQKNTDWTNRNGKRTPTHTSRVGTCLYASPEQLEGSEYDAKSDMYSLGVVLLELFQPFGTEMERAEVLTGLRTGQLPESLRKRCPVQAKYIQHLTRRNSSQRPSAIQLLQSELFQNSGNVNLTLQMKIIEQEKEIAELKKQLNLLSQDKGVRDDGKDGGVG
T20 sequence (P42684 whole entry): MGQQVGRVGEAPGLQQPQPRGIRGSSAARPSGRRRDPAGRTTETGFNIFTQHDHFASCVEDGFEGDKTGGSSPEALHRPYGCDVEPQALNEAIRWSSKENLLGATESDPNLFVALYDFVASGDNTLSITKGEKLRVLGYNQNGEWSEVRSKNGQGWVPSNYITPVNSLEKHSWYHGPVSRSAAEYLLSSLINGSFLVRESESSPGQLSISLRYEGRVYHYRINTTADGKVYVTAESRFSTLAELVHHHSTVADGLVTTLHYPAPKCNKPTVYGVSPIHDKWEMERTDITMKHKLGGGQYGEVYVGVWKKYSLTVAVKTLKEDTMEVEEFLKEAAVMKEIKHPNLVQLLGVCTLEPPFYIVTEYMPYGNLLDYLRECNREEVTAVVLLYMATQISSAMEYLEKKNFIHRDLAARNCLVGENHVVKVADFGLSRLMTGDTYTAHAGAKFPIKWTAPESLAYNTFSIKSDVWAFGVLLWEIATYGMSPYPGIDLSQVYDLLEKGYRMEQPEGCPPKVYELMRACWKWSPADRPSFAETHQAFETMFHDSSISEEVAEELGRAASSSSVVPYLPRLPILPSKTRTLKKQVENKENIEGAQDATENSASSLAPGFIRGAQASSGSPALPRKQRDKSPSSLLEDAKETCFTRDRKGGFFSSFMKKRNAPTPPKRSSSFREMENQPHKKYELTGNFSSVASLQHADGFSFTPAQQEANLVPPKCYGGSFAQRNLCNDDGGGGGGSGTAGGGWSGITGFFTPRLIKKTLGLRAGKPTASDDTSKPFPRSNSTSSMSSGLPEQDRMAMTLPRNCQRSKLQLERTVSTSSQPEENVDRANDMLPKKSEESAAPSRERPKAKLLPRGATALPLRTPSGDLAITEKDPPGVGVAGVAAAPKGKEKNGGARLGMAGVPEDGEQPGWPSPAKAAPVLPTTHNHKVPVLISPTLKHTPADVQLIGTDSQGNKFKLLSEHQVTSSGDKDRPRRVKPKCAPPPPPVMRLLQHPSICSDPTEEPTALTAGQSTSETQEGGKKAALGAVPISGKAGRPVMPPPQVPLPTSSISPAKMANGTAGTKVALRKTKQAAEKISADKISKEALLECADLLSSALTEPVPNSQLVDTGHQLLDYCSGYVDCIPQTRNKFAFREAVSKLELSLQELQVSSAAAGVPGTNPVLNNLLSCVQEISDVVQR
T19 sequence (P42336 whole entry): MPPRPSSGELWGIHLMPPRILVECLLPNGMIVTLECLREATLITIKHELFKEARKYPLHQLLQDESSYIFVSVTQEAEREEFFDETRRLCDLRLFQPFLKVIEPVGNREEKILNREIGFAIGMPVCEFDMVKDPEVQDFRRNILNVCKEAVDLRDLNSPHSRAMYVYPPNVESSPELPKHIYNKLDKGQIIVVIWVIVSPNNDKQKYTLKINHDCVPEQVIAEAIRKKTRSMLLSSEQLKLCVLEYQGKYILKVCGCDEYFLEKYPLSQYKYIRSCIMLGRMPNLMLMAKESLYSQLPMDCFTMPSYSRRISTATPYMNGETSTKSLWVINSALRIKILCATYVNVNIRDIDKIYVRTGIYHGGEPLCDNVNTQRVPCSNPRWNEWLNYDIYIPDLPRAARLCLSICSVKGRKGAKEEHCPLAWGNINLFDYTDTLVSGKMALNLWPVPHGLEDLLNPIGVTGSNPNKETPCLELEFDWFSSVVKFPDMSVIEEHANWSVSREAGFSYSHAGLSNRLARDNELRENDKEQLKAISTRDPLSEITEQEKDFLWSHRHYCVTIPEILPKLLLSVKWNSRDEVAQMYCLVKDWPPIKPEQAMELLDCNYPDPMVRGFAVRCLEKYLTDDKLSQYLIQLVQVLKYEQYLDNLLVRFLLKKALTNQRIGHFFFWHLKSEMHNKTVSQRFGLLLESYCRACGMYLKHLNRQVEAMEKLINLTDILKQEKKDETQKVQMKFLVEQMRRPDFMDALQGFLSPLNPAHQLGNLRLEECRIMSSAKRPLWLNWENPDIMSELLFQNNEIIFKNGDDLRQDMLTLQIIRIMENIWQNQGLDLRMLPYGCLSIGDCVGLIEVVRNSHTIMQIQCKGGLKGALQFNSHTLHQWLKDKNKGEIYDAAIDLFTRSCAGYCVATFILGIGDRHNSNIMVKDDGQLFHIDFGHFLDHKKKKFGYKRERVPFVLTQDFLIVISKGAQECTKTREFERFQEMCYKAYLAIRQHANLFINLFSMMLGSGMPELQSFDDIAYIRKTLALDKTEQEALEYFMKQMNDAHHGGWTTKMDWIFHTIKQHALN
T12 sequence (P45983 whole entry): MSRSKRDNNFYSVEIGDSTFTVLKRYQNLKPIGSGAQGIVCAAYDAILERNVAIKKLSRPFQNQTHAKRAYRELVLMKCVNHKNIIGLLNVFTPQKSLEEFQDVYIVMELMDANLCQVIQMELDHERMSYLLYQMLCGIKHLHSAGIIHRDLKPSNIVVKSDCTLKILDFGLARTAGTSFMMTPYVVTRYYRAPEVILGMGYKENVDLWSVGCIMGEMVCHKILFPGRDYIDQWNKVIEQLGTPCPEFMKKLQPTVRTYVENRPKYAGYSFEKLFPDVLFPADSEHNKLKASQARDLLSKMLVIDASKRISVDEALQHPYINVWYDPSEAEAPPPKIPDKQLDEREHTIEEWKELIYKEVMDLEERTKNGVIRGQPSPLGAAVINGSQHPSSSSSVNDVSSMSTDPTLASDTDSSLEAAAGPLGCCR
T13 sequence (P23458 whole entry): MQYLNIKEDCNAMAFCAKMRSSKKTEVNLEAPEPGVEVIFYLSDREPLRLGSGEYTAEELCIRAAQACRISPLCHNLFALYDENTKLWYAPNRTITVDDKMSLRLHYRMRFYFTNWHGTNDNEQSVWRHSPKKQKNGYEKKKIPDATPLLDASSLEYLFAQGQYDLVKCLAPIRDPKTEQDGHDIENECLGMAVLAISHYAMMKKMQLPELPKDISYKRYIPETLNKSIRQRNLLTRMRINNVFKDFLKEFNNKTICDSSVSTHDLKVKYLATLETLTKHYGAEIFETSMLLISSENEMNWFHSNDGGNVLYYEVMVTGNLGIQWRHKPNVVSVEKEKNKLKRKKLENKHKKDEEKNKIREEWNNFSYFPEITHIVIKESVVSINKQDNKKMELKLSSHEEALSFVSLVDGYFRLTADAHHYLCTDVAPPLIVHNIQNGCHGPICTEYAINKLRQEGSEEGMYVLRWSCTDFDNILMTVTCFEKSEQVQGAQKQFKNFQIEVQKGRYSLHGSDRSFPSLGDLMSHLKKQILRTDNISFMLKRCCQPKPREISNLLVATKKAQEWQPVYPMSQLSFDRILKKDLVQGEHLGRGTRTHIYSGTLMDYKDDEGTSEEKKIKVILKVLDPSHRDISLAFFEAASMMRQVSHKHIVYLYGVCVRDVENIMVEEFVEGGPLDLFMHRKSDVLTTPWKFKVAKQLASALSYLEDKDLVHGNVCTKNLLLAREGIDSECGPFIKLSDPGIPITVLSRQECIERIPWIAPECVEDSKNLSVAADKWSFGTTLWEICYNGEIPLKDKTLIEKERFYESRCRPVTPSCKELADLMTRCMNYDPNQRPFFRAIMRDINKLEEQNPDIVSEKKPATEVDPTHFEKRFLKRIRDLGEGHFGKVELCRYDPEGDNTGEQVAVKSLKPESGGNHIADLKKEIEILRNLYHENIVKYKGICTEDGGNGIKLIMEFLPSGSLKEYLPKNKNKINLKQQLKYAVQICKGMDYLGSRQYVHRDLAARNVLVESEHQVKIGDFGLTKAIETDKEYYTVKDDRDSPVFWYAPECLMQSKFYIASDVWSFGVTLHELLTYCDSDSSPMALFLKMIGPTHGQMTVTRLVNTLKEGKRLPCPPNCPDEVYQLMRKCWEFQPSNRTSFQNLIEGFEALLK

C[C@H]1COCCN1c1cc(-c2ccccn2)nc(-c2ccc(NC(=O)NCCO)cc2)n1 [Example 43, (S)-1-(2-hydroxyethyl)-3-(4-(4-(3-methylmorpholino)-6-(pyridin-2-yl)pyrimidin-2-yl)phenyl)urea]
> 10 µM: all assays above

C[C@H]1COCCN1c1nc(-c2ccc(NC(=O)NC3CC3)cc2)cc(-c2cc(F)ccc2S(C)(=O)=O)n1 [Example 40, (S)-1-cyclopropyl-3-(4-(6-(5-fluoro-2-(methylsulfonyl)phenyl)-2-(3-methylmorpholino)pyrimidin-4-yl)phenyl)urea]
> 10 µM: all assays above
